Experimental data as given in the OligoGym collection.
HELM strings list units from the 5' end as sugar, base in round brackets, then linkage (d deoxyribose, r ribose, m 2'-O-methyl, p phosphodiester). Strings are as the collection lists them, not checked against the first reports. ss, as = sense and antisense strand; [una] = unlocked nucleic acid; [s4r] = 4'-thioribose; [fl2r] = 2'-fluoro

Conditions: siRNA
Further: test system not given here.

In the case of “RNA1{r(A)p.r(G)p.r(A)p.r(G)p.r(U)p.r(U)p.r(G)p.r(G)p.r(G)p.r(A)p.r(U)p.r(U)p.r(A)p.r(G)p.r(G)p.r(G)p.r(C)p.r(U)p.r(U)p.r(T)p.r(T)}|RNA2{r(A)p.r(A)p.r(G)p.r(C)p.r(C)p.r(C)p.m(U)p.r(A)p.r(A)p.r(U)p.r(C)p.r(C)p.r(C)p.r(A)p.r(A)p.r(C)p.r(U)p.r(C)p.r(U)p.r(T)p.r(T)}$$$RNA1{StrandType:ss}|RNA2{StrandType:as}$”, the target mRNA knockdown is reported as 69%.

For “RNA1{[s4r](C)p.[s4r](G)p.[s4r](U)p.[s4r](A)p.[s4r](C)p.[s4r](G)p.r(C)p.r(G)p.r(G)p.r(A)p.r(A)p.r(U)p.r(A)p.r(C)p.r(U)p.r(U)p.r(C)p.r(G)p.r(A)p.r(T)p.r(T)}|RNA2{r(U)p.r(C)p.r(G)p.r(A)p.r(A)p.r(G)p.r(U)p.r(A)p.r(U)p.r(U)p.r(C)p.r(C)p.r(G)p.r(C)p.r(G)p.r(U)p.r(A)p.r(C)p.r(G)p.r(T)p.r(T)}$$$RNA1{StrandType:ss}|RNA2{StrandType:as}$”, the target mRNA knockdown was 94%.

With “RNA1{r(G)p.r(U)p.r(A)p.r(U)p.r(C)p.r(C)p.r(G)p.r(A)p.r(A)p.r(G)p.r(A)p.r(C)p.r(G)p.r(A)p.r(A)p.r(G)p.r(C)p.m(U)p.r(A)p.r(T)p.r(T)}|RNA2{m(U)p.r(A)p.r(G)p.r(C)p.r(U)p.r(U)p.r(C)p.r(G)p.r(U)p.r(C)p.r(U)p.r(U)p.r(C)p.r(G)p.r(G)p.r(A)p.m(U)p.r(A)p.r(C)p.r(T)p.r(T)}$$$RNA1{StrandType:ss}|RNA2{StrandType:as}$” the target mRNA knockdown was 95%.

Work on “RNA1{m(G)p.r(G)p.m(A)p.r(A)p.m(G)p.r(U)p.m(C)p.r(C)p.m(A)p.r(C)p.m(C)p.r(U)p.m(U)p.r(C)p.m(U)p.r(C)p.m(C)p.r(G)p.m(A)p.r(T)p.r(T)}|RNA2{m(U)p.r(C)p.r(G)p.r(G)p.r(A)p.r(G)p.r(A)p.r(A)p.r(G)p.r(G)p.m(U)p.r(G)p.r(G)p.r(A)p.r(C)p.m(U)p.m(U)p.r(C)p.r(C)p.r(T)p.r(T)}$$$RNA1{StrandType:ss}|RNA2{StrandType:as}$” yielded a target mRNA knockdown of 27%.

“RNA1{r(A)p.r(A)p.r(C)p.r(C)p.r(C)p.r(A)p.r(C)p.r(C)p.r(A)p.r(C)p.r(A)p.r(G)p.r(C)p.m(U)p.r(A)p.r(G)p.r(A)p.r(A)p.r(C)p.m(U)p.m(U)}|RNA2{r(A)p.r(A)p.r(G)p.r(U)p.r(U)p.r(C)p.m(U)p.r(A)p.r(G)p.r(C)p.r(U)p.r(G)p.r(U)p.r(G)p.r(G)p.r(U)p.r(G)p.r(G)p.r(G)p.r(U)p.r(U)}$$$RNA1{StrandType:ss}|RNA2{StrandType:as}$” gave a target mRNA knockdown of 81%.

In the case of “RNA1{r(C)p.r(C)p.r(G)p.r(A)p.r(A)p.r(G)p.r(A)p.r(C)p.r(G)p.r(A)p.r(A)p.r(G)p.r(C)p.m(U)p.r(A)p.r(U)p.r(G)p.r(A)p.r(A)p.r(T)p.r(T)}|RNA2{r(U)p.r(U)p.m(C)p.r(A)p.r(U)p.r(A)p.r(G)p.r(C)p.r(U)p.r(U)p.r(C)p.r(G)p.r(U)p.r(C)p.r(U)p.r(U)p.r(C)p.r(G)p.r(G)p.r(T)p.r(T)}$$$RNA1{StrandType:ss}|RNA2{StrandType:as}$”, the target mRNA knockdown is reported as 71%.

Substance “RNA1{r(A)p.r(A)p.r(A)p.r(C)p.r(C)p.r(U)p.r(C)p.r(A)p.r(G)p.r(C)p.r(C)p.r(C)p.m(U)p.m(A)p.r(A)p.r(C)p.r(G)p.r(G)p.r(U)p.r(T)p.r(T)}|RNA2{r(A)p.r(C)p.r(C)p.r(G)p.r(U)p.m(U)p.r(A)p.r(G)p.r(G)p.r(G)p.r(C)p.r(U)p.r(G)p.r(A)p.r(G)p.r(G)p.r(U)p.r(U)p.r(U)p.r(T)p.r(T)}$$$RNA1{StrandType:ss}|RNA2{StrandType:as}$” has a target mRNA knockdown of 69%.

Work on “RNA1{r(U)p.r(U)p.r(C)p.[fl2r](U)p.r(A)p.r(A)p.r(C)p.r(C)p.r(G)p.r(G)p.r(G)p.r(C)p.r(A)p.r(G)p.r(C)p.r(U)p.r(U)p.r(C)p.r(U)p.r(T)p.r(T)}|RNA2{r(A)p.r(G)p.r(A)p.r(A)p.r(G)p.r(C)p.r(U)p.r(G)p.r(C)p.r(C)p.r(C)p.r(G)p.r(G)p.r(U)p.[fl2r](U)p.r(A)p.r(G)p.r(A)p.r(A)p.r(T)p.r(T)}$$$RNA1{StrandType:ss}|RNA2{StrandType:as}$” yielded a target mRNA knockdown of 72%.

In the case of “RNA1{r(G)p.r(A)p.r(A)p.r(G)p.r(A)p.r(G)p.r(C)p.r(C)p.m(U)p.m(A)p.m(C)p.r(A)p.m(C)p.r(A)p.r(A)p.r(C)p.r(C)p.r(C)p.r(U)p.r(T)p.r(T)}|RNA2{r(A)p.r(G)p.r(G)p.r(G)p.r(U)p.m(U)p.r(G)p.m(U)p.r(G)p.m(U)p.r(A)p.r(G)p.r(G)p.r(C)p.r(U)p.r(C)p.r(U)p.r(U)p.r(C)p.r(T)p.r(T)}$$$RNA1{StrandType:ss}|RNA2{StrandType:as}$”, the target mRNA knockdown is reported as 74%.

“RNA1{r(A)p.r(C)p.r(C)p.r(U)p.r(U)p.r(U)p.r(C)p.r(C)p.r(A)p.r(C)p.r(U)p.r(U)p.r(C)p.r(U)p.r(A)p.r(A)p.r(G)p.r(C)p.r(C)p.r(T)p.r(T)}|RNA2{r(G)p.r(G)p.r(C)p.m(U)p.m(U)p.r(A)p.r(G)p.r(A)p.r(A)p.r(G)p.m(U)p.r(G)p.r(G)p.r(A)p.r(A)p.r(A)p.r(G)p.r(G)p.m(U)p.r(T)p.r(T)}$$$RNA1{StrandType:ss}|RNA2{StrandType:as}$” showed a target mRNA knockdown of 80%.

“RNA1{m(A)p.r(A)p.m(G)p.r(G)p.m(A)p.r(C)p.m(C)p.r(U)p.m(A)p.r(G)p.m(A)p.r(G)p.m(G)p.r(A)p.m(G)p.r(U)p.m(C)p.r(A)p.m(C)p.r(T)p.r(T)}|RNA2{m(G)p.r(U)p.m(G)p.r(A)p.r(C)p.r(U)p.r(C)p.r(C)p.r(U)p.r(C)p.r(U)p.r(A)p.m(G)p.m(G)p.r(U)p.r(C)p.r(C)p.r(U)p.r(U)p.r(T)p.r(T)}$$$RNA1{StrandType:ss}|RNA2{StrandType:as}$” showed a target mRNA knockdown of 36%.

For “RNA1{[fl2r](G)p.r(G)p.[fl2r](C)p.r(U)p.[fl2r](U)p.r(A)p.[fl2r](G)p.r(U)p.[fl2r](C)p.r(A)p.[fl2r](C)p.r(U)p.[fl2r](C)p.r(C)p.[fl2r](U)p.r(C)p.[fl2r](U)p.r(U)p.[fl2r](C)p.r(T)p.r(T)}|RNA2{r(G)p.r(A)p.r(A)p.r(G)p.r(A)p.r(G)p.r(G)p.r(A)p.r(G)p.r(U)p.r(G)p.r(A)p.r(C)p.r(U)p.r(A)p.r(A)p.r(G)p.r(C)p.r(C)p.r(T)p.r(T)}$$$RNA1{StrandType:ss}|RNA2{StrandType:as}$”, the target mRNA knockdown was 23%.

With “RNA1{r(C)p.r(G)p.r(G)p.r(A)p.r(U)p.r(C)p.m(U)p.m(A)p.m(C)p.r(A)p.r(C)p.r(C)p.r(U)p.r(U)p.m(C)p.r(A)p.r(A)p.r(G)p.r(A)p.r(T)p.r(T)}|RNA2{r(U)p.r(C)p.r(U)p.m(U)p.r(G)p.r(A)p.r(A)p.r(G)p.r(G)p.m(U)p.r(G)p.m(U)p.r(A)p.r(G)p.r(A)p.r(U)p.r(C)p.r(C)p.r(G)p.r(T)p.r(T)}$$$RNA1{StrandType:ss}|RNA2{StrandType:as}$” the target mRNA knockdown was 40%.

In the case of “RNA1{r(G)p.r(G)p.r(A)p.r(C)p.r(A)p.r(U)p.r(U)p.r(C)p.r(A)p.r(G)p.r(A)p.r(A)p.r(C)p.r(A)p.r(A)p.r(G)p.r(A)p.r(A)p.r(A)p.[una](U)p.[una](U)}|RNA2{[una](U)p.r(U)p.r(U)p.r(C)p.r(U)p.r(U)p.r(G)p.r(U)p.r(U)p.r(C)p.r(U)p.r(G)p.r(A)p.r(A)p.r(U)p.r(G)p.r(U)p.r(C)p.r(C)p.[una](U)p.[una](U)}$$$RNA1{StrandType:ss}|RNA2{StrandType:as}$”, the target mRNA knockdown is reported as 75%.

Substance “RNA1{r(G)p.m(U)p.r(A)p.r(C)p.r(U)p.r(C)p.r(U)p.r(G)p.r(A)p.r(U)p.r(G)p.r(A)p.r(G)p.r(G)p.r(A)p.r(A)p.r(G)p.r(A)p.r(G)p.r(T)p.r(T)}|RNA2{r(C)p.r(U)p.r(C)p.r(U)p.r(U)p.r(C)p.r(C)p.r(U)p.r(C)p.r(A)p.r(U)p.r(C)p.r(A)p.r(G)p.r(A)p.r(G)p.r(U)p.r(A)p.r(C)p.r(T)p.r(T)}$$$RNA1{StrandType:ss}|RNA2{StrandType:as}$” has a target mRNA knockdown of 69%.

Work on “RNA1{r(A)p.r(G)p.r(U)p.r(U)p.r(U)p.r(C)p.[fl2r](U)p.r(A)p.r(G)p.r(G)p.r(G)p.r(C)p.r(C)p.r(G)p.[fl2r](U)p.r(G)p.r(G)p.r(C)p.r(C)p.r(T)p.r(T)}|RNA2{r(G)p.r(G)p.r(C)p.[fl2r](C)p.r(A)p.r(C)p.r(G)p.[fl2r](G)p.r(C)p.r(C)p.r(C)p.[fl2r](U)p.r(A)p.r(G)p.r(A)p.r(A)p.r(A)p.r(C)p.r(U)p.r(T)p.r(T)}$$$RNA1{StrandType:ss}|RNA2{StrandType:as}$” yielded a target mRNA knockdown of 85%.

With “RNA1{r(G)p.r(A)p.r(A)p.r(G)p.r(A)p.[fl2r](U)p.r(A)p.r(G)p.r(G)p.r(A)p.r(A)p.r(G)p.r(G)p.r(G)p.r(G)p.r(C)p.r(U)p.r(U)p.r(C)p.r(T)p.r(T)}|RNA2{r(G)p.r(A)p.r(A)p.r(G)p.r(C)p.r(C)p.r(C)p.r(C)p.r(U)p.r(U)p.r(C)p.r(C)p.[fl2r](U)p.r(A)p.r(U)p.r(C)p.r(U)p.r(U)p.r(C)p.r(T)p.r(T)}$$$RNA1{StrandType:ss}|RNA2{StrandType:as}$” the target mRNA knockdown was 56%.

“RNA1{r(G)p.r(C)p.r(U)p.r(G)p.[fl2r](U)p.r(A)p.r(A)p.r(C)p.r(C)p.r(U)p.r(C)p.r(G)p.r(G)p.r(A)p.r(G)p.r(A)p.r(G)p.r(U)p.r(U)p.r(T)p.r(T)}|RNA2{r(A)p.r(A)p.r(C)p.r(U)p.r(C)p.r(U)p.r(C)p.r(C)p.r(G)p.r(A)p.r(G)p.r(G)p.r(U)p.[fl2r](U)p.r(A)p.r(C)p.r(A)p.r(G)p.r(C)p.r(T)p.r(T)}$$$RNA1{StrandType:ss}|RNA2{StrandType:as}$” gave a target mRNA knockdown of 69%.

With “RNA1{r(A)p.r(A)p.r(A)p.r(C)p.r(C)p.r(C)p.r(C)p.r(U)p.r(A)p.r(G)p.r(A)p.r(G)p.r(G)p.r(G)p.r(C)p.r(A)p.r(A)p.r(G)p.r(U)p.r(T)p.r(T)}|RNA2{[fl2r](A)p.r(C)p.[fl2r](U)p.r(U)p.[fl2r](G)p.r(C)p.[fl2r](C)p.r(C)p.[fl2r](U)p.r(C)p.[fl2r](U)p.r(A)p.[fl2r](G)p.r(G)p.[fl2r](G)p.r(G)p.[fl2r](U)p.r(U)p.[fl2r](U)p.r(T)p.r(T)}$$$RNA1{StrandType:ss}|RNA2{StrandType:as}$” the target mRNA knockdown was 37%.

With “RNA1{m(C)p.r(U)p.m(G)p.r(A)p.m(C)p.r(C)p.m(G)p.r(G)p.m(A)p.r(A)p.m(G)p.r(C)p.m(G)p.r(C)p.m(U)p.r(U)p.m(A)p.r(A)p.r(A)p.r(T)p.r(T)}|RNA2{r(U)p.r(U)p.r(U)p.r(A)p.r(A)p.r(G)p.r(C)p.r(G)p.m(C)p.r(U)p.r(U)p.r(C)p.m(C)p.r(G)p.r(G)p.r(U)p.m(C)p.r(A)p.r(G)p.r(T)p.r(T)}$$$RNA1{StrandType:ss}|RNA2{StrandType:as}$” the target mRNA knockdown was 27%.
